Laboratory results from PubChem BioAssay (NCI).
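All cell lines were grown in 96-well plates and treated with compound for 48 hours. TGI marks complete inhibition of growth.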 Where a SMILES comes first, the peptide text is derived from it.

Key:
Test in all cases: DTP human tumour cell line panel, 48 h
LOX IMVI melanoma = test system: LOX IMVI melanoma
NCI/ADR-RES ovarian = test system: NCI/ADR-RES ovarian
RXF 393 renal = test system: RXF 393 renal
TK-10 renal = test system: TK-10 renal
DLD-1 colon = test system: DLD-1 colon
DMS 114 small cell lung = test system: DMS 114 small cell lung
DMS 273 small cell lung = test system: DMS 273 small cell lung
HOP-18 NSCLC = test system: HOP-18 NSCLC
KM20L2 colon = test system: KM20L2 colon
LXFL 529 NSCLC = test system: LXFL 529 NSCLC
M19-MEL melanoma = test system: M19-MEL melanoma
SNB-78 CNS = test system: SNB-78 CNS

SMILES | TGI (LOX IMVI melanoma) | TGI (NCI/ADR-RES ovarian) | TGI (RXF 393 renal) | TGI (TK-10 renal) | further results
O=C(O)c1ccc(NNc2cc(=O)[nH]c(=O)[nH]2)cc1 | > 100 µM | > 100 µM | > 100 µM | > 100 µM | 
COc1ccc2c(c1C)C(=O)C(O)(CC=C(C)C)O2 (centres undefined) | > 100 µM | > 100 µM |  | > 100 µM | 
COc1ccc(CCNC2=CC(=O)c3ncccc3C2=O)cc1OC | 3.14 µM | 9.32 µM | 15.2 µM | > 86 µM | 
COc1ccc2c(c1)CCc1c-2[nH]c2ccc(OC)cc12 | > 100 µM | > 100 µM |  | > 100 µM | 
CCN(CC)/C(Cl)=C(Cl)\C(=C1\Nc2ccc(OC)cc21)[N+](=O)[O-] | > 100 µM | > 100 µM | 72.9 µM | > 100 µM | 
N#Cc1c(-c2ccccc2)[nH]c2ccccc2c1=O | > 100 µM | > 100 µM | > 100 µM | 97.8 µM | 
C=CCn1c(=O)n(CC=C)c(=O)n(CC=C)c1=O | > 100 µM |  | > 100 µM | > 100 µM | TGI (DLD-1 colon): > 100 µM; TGI (DMS 114 small cell lung): > 100 µM; TGI (DMS 273 small cell lung): > 100 µM; TGI (HOP-18 NSCLC): > 100 µM; TGI (KM20L2 colon): > 100 µM; TGI (LXFL 529 NSCLC): > 100 µM; TGI (M19-MEL melanoma): > 100 µM; TGI (SNB-78 CNS): > 100 µM
O=C(NCCCNC(=O)c1ccc2c(O)c(O)ccc2c1)c1ccc2c(O)c(O)ccc2c1 | > 100 µM | > 100 µM | > 70 µM | > 85.6 µM | 
CC12CCC(C(=O)OC1=O)C2(C)C (centres undefined) | > 100 µM | > 100 µM | > 100 µM | > 100 µM | 
COc1cc(/C=C2\C[C@H]3[C@@H]4CC=C5C[C@@H](O)CC[C@]5(C)[C@H]4CC[C@]3(C)C2=O)cc(OC)c1OC | 53.8 µM | > 100 µM | 58 µM | > 100 µM | 
CC1=C(Br)C(Br)=C(C)S1=O | 27.8 µM | > 100 µM |  | 48.5 µM | 
O=C1NC(=O)C(c2c[nH]c3cc(Br)ccc23)=C1c1cn(C(c2ccccc2)(c2ccccc2)c2ccccc2)cn1 | 33.4 µM | > 100 µM | 37.5 µM | 38.4 µM | 
CC1(C)c2ccccc2C(=O)C12CCC(=O)CC2 | > 100 µM | > 100 µM | 96 µM | > 100 µM | 
Cc1cc(C)cc(C(=N)c2ccccc2Cc2cccc3ccccc23)c1 | 33 µM | 46.3 µM | 31.9 µM | 94.6 µM | 
Cn1ccc(C(=O)NCCOCCNC(=O)c2ccn(C)c(=O)c2O)c(O)c1=O | > 100 µM | > 100 µM |  | > 100 µM | 
CSC1=C(SC)SC(=C2SC3=C(SC(=C4SCCS4)S3)S2)S1 | > 100 µM | > 100 µM |  | > 100 µM | 
COn1cc(C=O)c2ccccc21 | > 100 µM | > 100 µM | > 100 µM | > 93 µM | 

SMILES | TGI (LOX IMVI melanoma) | TGI (NCI/ADR-RES ovarian) | TGI (RXF 393 renal) | TGI (TK-10 renal) | further results
CCOC(=O)C1=C(Nc2cccc(OC)c2)OCC1=O | > 100 µM | > 100 µM | > 100 µM | > 100 µM | 
CC(=O)OCC1OC(Nc2ncc(-c3ccc(C)cc3)s2)C(OC(C)=O)C(OC(C)=O)C1OC(C)=O (centres undefined) | > 68.3 µM | 78 µM | > 100 µM |  | TGI (DLD-1 colon): > 100 µM; TGI (DMS 114 small cell lung): > 100 µM; TGI (DMS 273 small cell lung): > 100 µM; TGI (HOP-18 NSCLC): > 100 µM; TGI (M19-MEL melanoma): > 31.6 µM; TGI (SNB-78 CNS): > 100 µM
CNC(=S)N/N=C(C)\C(=N/NC(=S)NC)c1ccccc1 | > 100 µM | > 100 µM | > 100 µM | > 100 µM | 
COC(CN(C(=O)c1ccccc1)C1CCC2(SCCS2)c2[nH]c3ccccc3c21)OC (centres undefined) | 6.67 µM | > 100 µM | > 100 µM | > 100 µM | 
CCC(C)C(NC(=O)C(CCCCN)NC(=O)C(NC(=O)C(CCC(N)=O)NC(=O)C(N)CCCNC(=N)N)C(C)CC)C(=O)NC(Cc1c[nH]c2ccccc12)C(=O)NC(Cc1ccccc1)C(=O)NC(CCC(N)=O)C(=O)NC(CC(N)=O)C(=O)NC(CCCNC(=N)N)C(=O)NC(CCCNC(=N)N)C(=O)NC(CCSC)C(=O)NC(CCCCN)C(=O)NC(Cc1c[nH]c2ccccc12)C(=O)NC(CCCCN)C(=O)NC(CCCCN)C(=O)N1CCCC1C(=O)NC(C)C(=O)NC(CCCCN)C(=O)NC(CCCNC(=N)N)C(=O)NC(CCCCN)C(=O)NC(CC(C)C)C(=O)NC(Cc1ccccc1)C(=O)NCC(=O)O (centres undefined) (H-RQIKIWFQNRRMKWKKPAKRKLFG-OH; configuration not given here) | > 25 µM | > 25 µM | > 25 µM | > 25 µM | 
C#CCn1ncc2c(SCc3ccccc3)ncnc21 | > 100 µM | > 100 µM | > 100 µM | > 100 µM | 
CCC1OC2C(CC=C(C)C)=C3OC(C)(O)C(C)(CC)C(OC(=O)c4ccccc4)C3=C3OC(=O)C=C1C32 (centres undefined) | 46.2 µM | > 100 µM |  | > 100 µM | 
COc1ccc2c(c1)CC[C@@H]1[C@@H]2CC[C@]2(C)C(=O)/C(=C/c3ccc(OC)c(OC)c3)C[C@@H]12 |  | > 100 µM | > 100 µM | > 100 µM | 
CC1=C(C(N)=O)C(c2ccncc2)C(C#N)=C2SCC(=O)N12 (centres undefined) |  | > 100 µM | > 100 µM |  | 
CCN(CC)c1ccc2cc(-c3nnc(-c4ccccc4)o3)c(=O)oc2c1 | > 100 µM | > 100 µM | > 52.5 µM | > 62.6 µM | 
CC1=CC(C2/C(=N/O)C=C(C)CC2(C)C)C(O)C(C)(C)C1 (centres undefined) | 32.3 µM | 33.5 µM | 30 µM | 35.2 µM | 
O=C(CC(c1ccccc1)N1CCCCC1)c1ccccc1 (centres undefined) | 20.6 µM | 60.8 µM | 33.6 µM | 27.3 µM | 
O=C(O)c1nc(-c2ccccn2)c(-c2ccccn2)nc1C(=O)O | 16.7 µM | > 23.1 µM | 9.71 µM | 15.3 µM | 
O=C1/C(=C\c2ccc([N+](=O)[O-])o2)SC2N=C(COc3ccc(Cl)cc3)NN12 (centres undefined) | 10.5 µM | 42.9 µM | 31.6 µM | 31.4 µM | 
CO[C@H]1[C@@H](O)[C@@H](C)O[C@@H](O[C@H]2CC[C@@]3(C)[C@H](CC[C@@H]4[C@@H]3CC[C@]3(C)[C@@H](C5=CC(=O)OC5)[C@@H](OC(C)=O)C[C@]43O)C2)[C@@H]1O | 0.194 µM | 0.175 µM | 0.0523 µM | 0.052 µM | 
Cc1cccc2c1[C@]13OC(C)[C@]4(C)CC5OC(=O)[C@@]1(C)[C@@H]5[C@]34C(=O)O2 (some centres undefined) | > 100 µM | > 100 µM |  | > 100 µM | 
